Reference: US20050032138A1 (priority 2003, published 2005)
Where two headings read alike, the source gives them in different places.

Assays:
PrPc and PrPsc [1] = test system: PrPc and PrPsc
PrPc [2] = target: PrPc (Mesocricetus auratus, UniProt P04273)
PrPc [3] = target: T1, PrPc (Homo sapiens, UniProt P04156)
PrPc and PrPsc [4] = target: PrPc and PrPsc (Homo sapiens, UniProt P04156)
PrPc [5] = target: T1, PrPc; remark: listed apart in the source
[6] = Fast Red staining with 3F4, red/pink beads indicate bound native PrPc or antibody, scrapie-infected hamster brain homogenate

Chain of PrPc (Mesocricetus auratus, UniProt P04273) (P04273 23-254 limits assumed): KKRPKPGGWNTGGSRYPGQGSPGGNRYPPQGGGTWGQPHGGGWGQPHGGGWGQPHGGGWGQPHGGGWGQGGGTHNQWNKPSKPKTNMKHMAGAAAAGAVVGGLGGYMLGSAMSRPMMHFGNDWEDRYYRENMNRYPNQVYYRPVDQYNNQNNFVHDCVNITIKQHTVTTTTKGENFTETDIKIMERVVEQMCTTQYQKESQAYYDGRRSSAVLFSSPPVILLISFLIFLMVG

| Substance | Intensity of Chemiluminescent Signal after Denaturing (PrPc and PrPsc [1]) | Bead Color (PrPc [2]) | also measured |
| --- | --- | --- | --- |
| SVYQLDA | Medium | White | – |
| HWK | – | – | Beads identified as PrPsc-specific binders (film 2 signal from PrPres after PK) (PrPres): specific for PrPsc |
| FPK | – | – | Beads identified as PrPsc-specific binders (film 2 signal from PrPres after PK) (PrPres): specific for PrPsc |
| WEE | – | – | Beads identified as PrPsc-specific binders (film 2 signal from PrPres after PK) (PrPres): specific for PrPsc |
| RWD | Strong | – | Bead Color (PrPc [2]; [6]): Bright pink |
| DVR | Strong | White | Signal on the first support (PrPc [3]): weak; Isoform binding preference concluded from first and second support signals (PrPc and PrPsc [4]): preferentially binds PrPsc; Signal on the second support following denaturation and transfer (PrPc and PrPsc [4]): strong; Bead colour under the microscope following on-bead detection (PrPc [5]): white |
| YID | Strong | – | Bead Color (PrPc [2]; [6]): Bright pink |
| FQGTREA | Strong | White | – |
| RWEREDA | Strong | Pink | – |
| EHATYRA | Strong | White | – |
| KWATRYA | Strong | White | – |
| TGTNRYA | Strong | White | – |
| VARENIA | Strong | White | – |
| LLR | – | – | Beads identified as PrPsc-specific binders (film 2 signal from PrPres after PK) (PrPres): specific for PrPsc |
| EWWETV | Medium | White | – |
| NSTKFDA | Strong | Pink | – |
